Data as given in publication PMC10239507, “Development of allosteric and selective CDK2 inhibitors for contraception with negative cooperativity to cyclin binding” (Nature Communications, 2023).

Experiments:
Assay in all cases: biochemical
[1] = target: T1, 371 kinases (kinase named in each endpoint) (Homo sapiens, UniProt Q16620); details: TRKB
T1 construct: purchased Reaction Biology

[2] = target: T2, 371 kinases (kinase named in each endpoint) (Homo sapiens, UniProt Q9NRH2); details: SNRK
T2 construct: purchased Reaction Biology

[3] = target: T3, 371 kinases (kinase named in each endpoint) (Homo sapiens, UniProt Q16288); details: TRKC
T3 construct: purchased Reaction Biology

[4] = target: T4, 371 kinases (kinase named in each endpoint) (Homo sapiens, UniProt Q9HBH9); details: MNK2
T4 construct: purchased Reaction Biology

[5] = target: T5, 371 kinases (kinase named in each endpoint) (Homo sapiens, UniProt Q8IY84); details: NIM1
T5 construct: purchased Reaction Biology

[6] = target: T6, 371 kinases (kinase named in each endpoint) (Homo sapiens, UniProt Q9Y6M4); details: CK1G3
T6 construct: purchased Reaction Biology

[7] = target: T7, 371 kinases (kinase named in each endpoint) (Homo sapiens, UniProt Q9UF33); details: EPHA6
T7 construct: purchased Reaction Biology

[8] = target: T8, 371 kinases (kinase named in each endpoint) (Homo sapiens, UniProt P29323); details: EPHB2
T8 construct: purchased Reaction Biology

[9] = target: T9, 371 kinases (kinase named in each endpoint) (Homo sapiens, UniProt Q9UPE1); details: MSSK1/STK23
T9 construct: purchased Reaction Biology

[10] = target: T10, 371 kinases (kinase named in each endpoint) (Homo sapiens, UniProt Q00536); details: CDK16/CYCLIN Y (PCTAIRE)
T10 construct: purchased Reaction Biology

[11] = target: T11, 371 kinases (kinase named in each endpoint) (Homo sapiens, UniProt P07332); details: FES/FPS
T11 construct: purchased Reaction Biology

[12] = target: T12, 371 kinases (kinase named in each endpoint) (Homo sapiens, UniProt O43318); details: TAK1
T12 construct: purchased Reaction Biology

[13] = target: T13, 371 kinases (kinase named in each endpoint) (Homo sapiens, UniProt Q9HAZ1); details: CLK4
T13 construct: purchased Reaction Biology

[14] = target: T14, 371 kinases (kinase named in each endpoint) (Homo sapiens, UniProt O00506); details: STK25/YSK1
T14 construct: purchased Reaction Biology

[15] = target: T15, 371 kinases (kinase named in each endpoint) (Homo sapiens, UniProt P27361); details: ERK1
T15 construct: purchased Reaction Biology

[16] = target: T16, 371 kinases (kinase named in each endpoint) (Homo sapiens, UniProt P07333); details: FMS
T16 construct: purchased Reaction Biology

[17] = target: T17, 371 kinases (kinase named in each endpoint) (Homo sapiens, UniProt Q5TCX8); details: MLK4
T17 construct: purchased Reaction Biology

[18] = target: T18, 371 kinases (kinase named in each endpoint) (Homo sapiens, UniProt Q96GD4); details: AURORA B
T18 construct: purchased Reaction Biology

[19] = target: T19, 371 kinases (kinase named in each endpoint) (Homo sapiens, UniProt Q16513); details: PKN2/PRK2
T19 construct: purchased Reaction Biology

[20] = target: T20, 371 kinases (kinase named in each endpoint) (Homo sapiens, UniProt Q13043); details: MST1/STK4
T20 construct: purchased Reaction Biology

[21] = target: T21, 371 kinases (kinase named in each endpoint) (Homo sapiens, UniProt Q8TD19); details: NEK9
T21 construct: purchased Reaction Biology

[22] = target: T22, 371 kinases (kinase named in each endpoint) (Homo sapiens, UniProt Q8TD08); details: ERK7/MAPK15
T22 construct: purchased Reaction Biology

[23] = target: T23, 371 kinases (kinase named in each endpoint) (Homo sapiens, UniProt Q9NYY3); details: PLK2
T23 construct: purchased Reaction Biology

[24] = target: T24, 371 kinases (kinase named in each endpoint) (Homo sapiens, UniProt O75716); details: STK16
T24 construct: purchased Reaction Biology

[25] = target: T25, 371 kinases (kinase named in each endpoint) (Homo sapiens, UniProt Q8N4C8); details: MINK/MINK1
T25 construct: purchased Reaction Biology

[26] = target: T26, 371 kinases (kinase named in each endpoint) (Homo sapiens, UniProt Q13627); details: DYRK1/DYRK1A
T26 construct: purchased Reaction Biology

[27] = target: T27, 371 kinases (kinase named in each endpoint) (Homo sapiens, UniProt O15530); details: PDK1/PDPK1
T27 construct: purchased Reaction Biology

[28] = target: T28, 371 kinases (kinase named in each endpoint) (Homo sapiens, UniProt Q9HBY8); details: SGK2
T28 construct: purchased Reaction Biology

[29] = target: T29, 371 kinases (kinase named in each endpoint) (Homo sapiens, UniProt P23458); details: JAK1
T29 construct: purchased Reaction Biology

[30] = target: T30, 371 kinases (kinase named in each endpoint) (Homo sapiens, UniProt Q8IW41); details: MAPKAPK5/PRAK
T30 construct: purchased Reaction Biology

[31] = target: T31, 371 kinases (kinase named in each endpoint) (Homo sapiens, UniProt Q7KZI7); details: MARK2/PAR-1BA
T31 construct: purchased Reaction Biology

[32] = target: T32, 371 kinases (kinase named in each endpoint) (Homo sapiens, UniProt Q8WTQ7); details: GRK7
T32 construct: purchased Reaction Biology

[33] = target: T33, 371 kinases (kinase named in each endpoint) (Homo sapiens, UniProt P11802)
T33 construct: purchased Reaction Biology

[34] = target: T34, 371 kinases (kinase named in each endpoint) (Homo sapiens, UniProt Q9BZL6); details: PKD2/PRKD2
T34 construct: purchased Reaction Biology

[35] = target: T35, 371 kinases (kinase named in each endpoint) (Homo sapiens, UniProt P78368); details: CK1G2
T35 construct: purchased Reaction Biology

[36] = target: T36, 371 kinases (kinase named in each endpoint) (Homo sapiens, UniProt P43405); details: SYK
T36 construct: purchased Reaction Biology

T33 sequence (P11802 whole entry): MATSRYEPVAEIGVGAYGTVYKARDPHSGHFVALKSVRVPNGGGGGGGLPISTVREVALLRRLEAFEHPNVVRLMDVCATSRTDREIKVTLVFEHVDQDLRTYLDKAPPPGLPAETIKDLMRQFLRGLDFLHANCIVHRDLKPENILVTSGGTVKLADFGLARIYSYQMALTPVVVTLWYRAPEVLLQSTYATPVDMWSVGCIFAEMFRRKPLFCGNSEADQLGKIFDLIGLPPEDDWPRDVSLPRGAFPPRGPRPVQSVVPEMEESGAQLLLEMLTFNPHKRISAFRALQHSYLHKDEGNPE
T32 sequence (Q8WTQ7 whole entry): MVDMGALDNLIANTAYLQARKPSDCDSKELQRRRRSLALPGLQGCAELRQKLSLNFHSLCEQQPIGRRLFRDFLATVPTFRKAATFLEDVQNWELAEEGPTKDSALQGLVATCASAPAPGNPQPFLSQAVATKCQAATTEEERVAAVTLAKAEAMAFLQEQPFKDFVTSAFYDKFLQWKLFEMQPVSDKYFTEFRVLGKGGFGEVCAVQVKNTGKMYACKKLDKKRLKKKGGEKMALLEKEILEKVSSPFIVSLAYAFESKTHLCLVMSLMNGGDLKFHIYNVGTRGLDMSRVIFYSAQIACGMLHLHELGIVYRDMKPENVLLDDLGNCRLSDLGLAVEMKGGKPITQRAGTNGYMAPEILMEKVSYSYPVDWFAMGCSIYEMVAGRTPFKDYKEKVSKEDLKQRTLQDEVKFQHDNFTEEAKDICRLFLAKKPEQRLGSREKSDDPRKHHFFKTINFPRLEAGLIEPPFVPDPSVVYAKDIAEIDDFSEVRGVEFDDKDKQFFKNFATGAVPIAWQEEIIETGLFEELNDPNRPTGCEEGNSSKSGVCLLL
T2 sequence (Q9NRH2 whole entry): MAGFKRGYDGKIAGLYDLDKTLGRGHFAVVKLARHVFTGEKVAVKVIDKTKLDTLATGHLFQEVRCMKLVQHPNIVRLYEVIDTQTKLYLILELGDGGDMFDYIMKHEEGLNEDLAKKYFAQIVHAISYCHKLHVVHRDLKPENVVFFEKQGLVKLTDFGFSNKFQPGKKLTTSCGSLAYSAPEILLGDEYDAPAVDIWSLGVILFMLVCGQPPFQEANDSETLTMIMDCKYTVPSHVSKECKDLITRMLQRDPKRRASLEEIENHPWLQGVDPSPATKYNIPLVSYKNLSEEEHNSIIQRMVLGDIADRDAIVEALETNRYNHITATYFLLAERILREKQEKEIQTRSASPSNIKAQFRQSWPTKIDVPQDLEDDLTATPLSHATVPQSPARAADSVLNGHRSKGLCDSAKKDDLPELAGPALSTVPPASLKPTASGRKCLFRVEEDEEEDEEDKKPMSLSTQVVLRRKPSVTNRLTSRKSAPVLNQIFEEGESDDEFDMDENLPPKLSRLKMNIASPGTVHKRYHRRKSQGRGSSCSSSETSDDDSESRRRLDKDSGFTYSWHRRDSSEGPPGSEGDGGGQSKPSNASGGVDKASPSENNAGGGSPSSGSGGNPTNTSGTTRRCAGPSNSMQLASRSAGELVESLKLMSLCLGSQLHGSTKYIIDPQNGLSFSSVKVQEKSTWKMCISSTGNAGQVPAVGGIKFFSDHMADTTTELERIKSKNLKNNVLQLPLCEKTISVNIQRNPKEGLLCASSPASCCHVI
T29 sequence (P23458 whole entry): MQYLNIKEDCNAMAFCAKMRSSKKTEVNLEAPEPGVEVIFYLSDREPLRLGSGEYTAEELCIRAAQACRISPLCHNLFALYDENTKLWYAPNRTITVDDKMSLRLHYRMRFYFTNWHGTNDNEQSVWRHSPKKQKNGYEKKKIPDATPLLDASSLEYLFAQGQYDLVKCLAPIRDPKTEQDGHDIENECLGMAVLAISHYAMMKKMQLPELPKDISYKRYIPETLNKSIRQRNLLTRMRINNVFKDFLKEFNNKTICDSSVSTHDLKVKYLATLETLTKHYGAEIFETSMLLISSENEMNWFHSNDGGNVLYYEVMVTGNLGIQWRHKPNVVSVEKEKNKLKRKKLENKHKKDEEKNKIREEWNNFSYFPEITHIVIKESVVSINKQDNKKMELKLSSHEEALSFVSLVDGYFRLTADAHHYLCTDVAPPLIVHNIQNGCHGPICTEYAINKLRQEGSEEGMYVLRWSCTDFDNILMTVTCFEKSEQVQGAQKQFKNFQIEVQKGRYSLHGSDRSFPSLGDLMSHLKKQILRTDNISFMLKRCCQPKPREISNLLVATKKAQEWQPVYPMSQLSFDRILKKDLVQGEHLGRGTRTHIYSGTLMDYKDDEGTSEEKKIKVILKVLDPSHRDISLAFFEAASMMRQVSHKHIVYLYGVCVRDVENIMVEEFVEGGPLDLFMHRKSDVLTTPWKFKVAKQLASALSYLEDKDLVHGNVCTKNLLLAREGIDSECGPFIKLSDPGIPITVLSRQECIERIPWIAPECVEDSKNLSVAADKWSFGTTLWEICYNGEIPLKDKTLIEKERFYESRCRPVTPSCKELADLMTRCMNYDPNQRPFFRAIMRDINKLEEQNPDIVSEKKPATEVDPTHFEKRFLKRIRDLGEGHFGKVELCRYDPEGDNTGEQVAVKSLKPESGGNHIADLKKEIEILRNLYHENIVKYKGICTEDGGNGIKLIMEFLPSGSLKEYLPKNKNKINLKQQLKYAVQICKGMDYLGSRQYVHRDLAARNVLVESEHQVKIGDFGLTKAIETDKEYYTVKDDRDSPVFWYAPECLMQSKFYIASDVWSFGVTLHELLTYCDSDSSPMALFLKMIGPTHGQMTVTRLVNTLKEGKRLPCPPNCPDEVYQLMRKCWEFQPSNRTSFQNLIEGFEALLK
T10 sequence (Q00536 whole entry): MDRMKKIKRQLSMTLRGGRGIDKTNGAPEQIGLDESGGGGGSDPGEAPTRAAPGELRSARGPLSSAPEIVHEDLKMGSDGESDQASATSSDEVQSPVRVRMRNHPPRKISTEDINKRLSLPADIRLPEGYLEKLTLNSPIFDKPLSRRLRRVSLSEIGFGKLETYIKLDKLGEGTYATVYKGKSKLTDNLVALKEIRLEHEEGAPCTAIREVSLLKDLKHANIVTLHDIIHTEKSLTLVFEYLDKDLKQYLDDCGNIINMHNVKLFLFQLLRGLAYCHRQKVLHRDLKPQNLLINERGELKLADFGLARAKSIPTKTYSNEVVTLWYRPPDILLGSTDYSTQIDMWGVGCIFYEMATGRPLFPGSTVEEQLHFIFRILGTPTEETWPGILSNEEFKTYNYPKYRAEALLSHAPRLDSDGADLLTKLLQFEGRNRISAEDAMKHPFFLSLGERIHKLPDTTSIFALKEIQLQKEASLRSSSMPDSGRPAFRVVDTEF
T35 sequence (P78368 whole entry): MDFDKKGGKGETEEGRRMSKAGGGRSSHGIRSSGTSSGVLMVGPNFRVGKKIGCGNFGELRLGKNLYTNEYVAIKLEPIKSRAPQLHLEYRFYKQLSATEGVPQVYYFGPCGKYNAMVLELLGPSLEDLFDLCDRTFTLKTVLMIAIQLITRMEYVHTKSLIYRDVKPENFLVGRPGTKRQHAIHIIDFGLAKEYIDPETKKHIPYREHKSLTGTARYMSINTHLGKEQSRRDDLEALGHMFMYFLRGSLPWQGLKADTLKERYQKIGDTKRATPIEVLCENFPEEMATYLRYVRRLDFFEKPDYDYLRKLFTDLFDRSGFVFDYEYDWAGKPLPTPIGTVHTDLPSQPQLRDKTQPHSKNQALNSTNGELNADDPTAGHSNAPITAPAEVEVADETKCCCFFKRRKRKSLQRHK
T12 sequence (O43318 whole entry): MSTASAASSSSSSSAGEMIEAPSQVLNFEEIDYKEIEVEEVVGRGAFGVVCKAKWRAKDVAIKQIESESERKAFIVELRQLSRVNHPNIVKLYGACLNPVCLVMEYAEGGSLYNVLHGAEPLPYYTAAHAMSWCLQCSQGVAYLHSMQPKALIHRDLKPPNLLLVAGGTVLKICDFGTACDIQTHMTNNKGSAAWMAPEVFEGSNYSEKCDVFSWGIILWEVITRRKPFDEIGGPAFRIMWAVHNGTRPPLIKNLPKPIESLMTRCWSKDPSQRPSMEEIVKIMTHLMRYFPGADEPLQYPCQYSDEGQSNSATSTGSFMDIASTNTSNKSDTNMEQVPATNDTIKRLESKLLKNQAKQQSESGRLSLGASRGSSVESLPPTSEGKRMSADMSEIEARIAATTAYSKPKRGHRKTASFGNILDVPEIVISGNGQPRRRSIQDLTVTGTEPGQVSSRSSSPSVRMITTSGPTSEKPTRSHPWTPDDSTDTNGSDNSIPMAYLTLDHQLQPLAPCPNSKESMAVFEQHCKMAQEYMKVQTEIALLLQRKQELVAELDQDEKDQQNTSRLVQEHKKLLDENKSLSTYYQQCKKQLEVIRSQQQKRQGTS
T14 sequence (O00506 whole entry): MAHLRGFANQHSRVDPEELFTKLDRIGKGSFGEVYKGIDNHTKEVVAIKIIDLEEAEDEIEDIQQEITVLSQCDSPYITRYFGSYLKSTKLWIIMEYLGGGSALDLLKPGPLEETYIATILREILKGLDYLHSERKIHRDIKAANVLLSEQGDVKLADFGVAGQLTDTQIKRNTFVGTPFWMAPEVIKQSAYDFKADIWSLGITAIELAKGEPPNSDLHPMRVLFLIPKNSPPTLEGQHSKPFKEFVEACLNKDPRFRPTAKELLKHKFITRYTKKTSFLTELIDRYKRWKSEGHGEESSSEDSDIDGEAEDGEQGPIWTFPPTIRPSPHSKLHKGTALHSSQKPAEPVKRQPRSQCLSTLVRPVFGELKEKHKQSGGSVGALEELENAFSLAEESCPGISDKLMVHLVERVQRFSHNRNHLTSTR
T24 sequence (O75716 whole entry): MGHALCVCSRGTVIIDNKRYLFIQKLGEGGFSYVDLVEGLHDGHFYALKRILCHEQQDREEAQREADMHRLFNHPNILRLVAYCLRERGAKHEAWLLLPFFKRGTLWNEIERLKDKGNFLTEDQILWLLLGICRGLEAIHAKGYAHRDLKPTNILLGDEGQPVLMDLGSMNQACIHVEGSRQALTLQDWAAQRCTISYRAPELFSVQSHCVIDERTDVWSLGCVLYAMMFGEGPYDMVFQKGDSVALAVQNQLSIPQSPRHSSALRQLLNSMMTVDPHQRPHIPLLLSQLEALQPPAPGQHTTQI

Question: How did the activity at 10 µM [1] turn out when `O=C(O)c1cc(C(F)(F)F)ccc1NCCc1c[nH]c2cc(Br)ccc12` [Compound 5, 2-((2-(6-Bromo-1H-indol-3-yl)ethyl)amino)−5-(trifluoromethyl)benzoic Acid] was run?
Answer: 45.4 ± 7.4%

Question: And the activity at 10 µM [2]?
Answer: 80.4 ± 2.1%

Question: What about the activity at 10 µM [3] of the same compound?
Answer: 91 ± 0.5%

Question: What about the activity at 10 µM [4] of the same compound?
Answer: 93.3 ± 1.9%

Question: What about the activity at 10 µM [5] of the same compound?
Answer: 88.9 ± 1%

Question: And the activity at 10 µM [6]?
Answer: 96.3 ± 0.6%

Question: What about the activity at 10 µM [7] of the same compound?
Answer: 91.9 ± 1.1%

Question: And the activity at 10 µM [8]?
Answer: 89.8%

Question: What about the activity at 10 µM [9] of the same compound?
Answer: 69.7 ± 3%

Question: And the activity at 10 µM [10]?
Answer: 76.9 ± 0.5%

Question: What about the activity at 10 µM [11] of the same compound?
Answer: 96.5 ± 1.8%

Question: And the activity at 10 µM [12]?
Answer: 92.1 ± 0.7%

Question: What about the activity at 10 µM [13] of the same compound?
Answer: 97.4 ± 0.8%

Question: What about the activity at 10 µM [14] of the same compound?
Answer: 124 ± 1.4%

Question: What about the activity at 10 µM [15] of the same compound?
Answer: 99.7 ± 0.9%

Question: What about the activity at 10 µM [16] of the same compound?
Answer: 98 ± 1.7%

Question: What about the activity at 10 µM [17] of the same compound?
Answer: 88.2 ± 0.3%

Question: What about the activity at 10 µM [18] of the same compound?
Answer: 34.9 ± 0.5%

Question: And the activity at 10 µM [19]?
Answer: 110 ± 1.7%

Question: And the activity at 10 µM [20]?
Answer: 89.6 ± 2.7%

Question: And the activity at 10 µM [21]?
Answer: 117 ± 3.3%

Question: What about the activity at 10 µM [22] of the same compound?
Answer: 136 ± 6.1%

Question: And the activity at 10 µM [23]?
Answer: 67.4 ± 0.7%

Question: And the activity at 10 µM [24]?
Answer: 80.4 ± 1.1%

Question: And the activity at 10 µM [25]?
Answer: 86.9 ± 0.4%

Question: What about the activity at 10 µM [26] of the same compound?
Answer: 80 ± 5.9%

Question: And the activity at 10 µM [27]?
Answer: 97 ± 1%

Question: And the activity at 10 µM [28]?
Answer: 63.9 ± 2%

Question: What about the activity at 10 µM [29] of the same compound?
Answer: 67.7 ± 0.8%

Question: What about the activity at 10 µM [30] of the same compound?
Answer: 95.4 ± 2%

Question: And the activity at 10 µM [31]?
Answer: 87.5 ± 0.7%

Question: What about the activity at 10 µM [32] of the same compound?
Answer: 101.5 ± 0.4%

Question: What about the activity at 10 µM ([33]; CDK4/CYCLIN D1) of the same compound?
Answer: 80.1 ± 2.6%

Question: What about the activity at 10 µM ([33]; CDK4/CYCLIN D2) of the same compound?
Answer: 29.1 ± 0.1%

Question: What about the activity at 10 µM ([33]; CDK4/CYCLIN D3) of the same compound?
Answer: 82.9 ± 0.6%

Question: And the activity at 10 µM [34]?
Answer: 84.1 ± 0.4%

Question: And the activity at 10 µM [35]?
Answer: 102 ± 1.6%

Question: What about the activity at 10 µM [36] of the same compound?
Answer: 85.8 ± 1.6%
